# Where no end group is shown, it is not given here.
# Tests used:
# [1] = test system: Human adenocarcinoma cells (PC-9); test: Orthotopic lung cancer implantation model in SCID mice, i.p. versus inhalation (Example 4); format: in vivo
# Method: In this study, inhibition of lung cancer metastasis by peptide BIO-11006 in an orthotopic lung cancer implantation model in SCID mice assessed. Human adenocarcinoma cells (PC-9) (1-2×10^5) were suspended in 40 μL of PBS, pH 7.4 containing 0.5 mg/mL of Matrigel™ (BD Bioscience) and injected into the left lung of SCID mice (n=3) using a syringe with 29 gauge needle. BIO-11006 (100 μM, in PBS) was administered either (a) by i.p. injection (50 μL) once daily for 22 days starting at 3 days post cancer cell inoculation or (b) by aerosol inhalation using a Nebulizer Delivery System (Aeroneb Lab) over 30 min once daily for 22 days starting at 3 days post cancer cell inoculation. […] Both i.p. and aerosol administration of BIO-11006 reduced cancer cell metastasis by more than 50% in the right lung and heart, and 100% in the diaphragm. Thus, both routes of administration had significant inhibitory effects on cancer cell metastasis.
# A549 = test: Transwell migration assay, A549 cells; format: cell-based, human; settings: 12 hr
# Method: The human adenocarcinoma-derived alveolar epithelial cell line A549 (an invasive cell line) was obtained from the American Type Culture Collection (ATCC) and was cultured in RPMI-1640 supplemented with 10% fetal bovine serum and 100 U/ml penicillin/streptomycin, in 75 cm^2 tissue culture flasks. The cells reached confluence by the third day of culture at 37° C. in an atmosphere of 95% air and 5% CO2 and were maintained by serial passage.
# The test peptides (MANS, RNS, BIO-11006, BIO-11000, BIO-11002, BIO-91200, and BIO-10901) were dissolved in PBS at a pH of 7.0; slow vortex mixing for about two hours aided solubility.
# Transwell plates (24-well, […]; Costar, Cambridge, Mass., USA) were used to conduct the migration assay. The lower chambers of the transwell plates were filled with 600 μl of basal medium containing 10% FBS. The cells (1×10^5) were suspended in 100 μl of basal medium containing 1% BSA and added to the upper chamber, and the plates incubated at 37° C. with 5% CO2 for 12 hr in PBS (control), or the indicated test peptides at 10, 25 or 50 μM. The cells on the upper surface of the filters were removed using cotton swabs. The cells that migrated to the lower surface of the filters were washed, fixed, and stained with hematoxylin and counted under the microscope. The percent change in migration is determined by counting the number of cells that migrated to the lower surface of the filters. At least four separate microscopic fields are counted per membrane, with a total of three replicate experiments at each concentration. The statistics software “Prizm” was used for data analysis.
# [2] = aerosol inhalation 100 μM over 30 min once daily for 22 days from 3 days post inoculation
# [3] = i.p. injection 50 μL of 100 μM once daily for 22 days from 3 days post inoculation
substance,measurement,setting,value
N-acetyl-GAQFSKTAAK (Ac-GAQFSKTAAK; listed as Homo sapiens) [BIO-11006],reduction of cancer cell metastasis in the diaphragm,[1]; [2],100%
same,reduction of cancer cell metastasis in the right lung and heart,[1]; [2],more than 50%
same,reduction of cancer cell metastasis in the diaphragm,[1]; [3],100%
same,reduction of cancer cell metastasis in the right lung and heart,[1]; [3],more than 50%
same,"cell numbers in comparison to control, RNS peptide and MANS peptide","A549; A549, 25 μm, FIG. 11",significantly reduced cell numbers
same,migration index numbers relative to control and to RNS peptide,"A549; A549, 50 μm",increased migration index numbers
same,migrated cell numbers relative to control and to RNS peptide,"A549; A549, 50 μm, FIG. 11",decreased migrated cell numbers
